These results are taken from ChEMBL document CHEMBL1133023, “Deoxy sugar analogues of triciribine: correlation of antiviral and antiproliferative activity with intracellular phosphorylation” (J Med Chem, 2000).

Type in all cases: functional, cell-based
A short description of test [1]: Antiviral activity was tested using an enzyme-linked immunosorbent assay (ELISA) to detect HSV-1 (herpes simplex virus type 1) using BSC-1 cells. The conditions noted are these: Cercopithecidae. (In an ELISA, binding on a coated surface is turned into a signal by an enzyme label.)
For a further test, the system named is L1210. In words: Tested in vitro for cytotoxicity against murine L1210 leukemic cells. The conditions noted are these: Mus musculus.
Test [2] deals with HFF. In words: Tested for visual cytotoxicity on uninfected HFF cells. The settings on record: Homo sapiens.
In test [3] the test system is HFF. In words: HCMV plaque assay was performed using HFF cells and effect was calculated as a percentage of reduction in number of plaques. The conditions noted are these: Homo sapiens.
Test [4] concerns CEM-SS. Description: Tested for visual cytotoxicity on uninfected CEM-SS cells. The settings on record: Homo sapiens.
The next test deals with KB. In words: Inhibition of KB cell growth was assessed. The conditions noted are these: Homo sapiens.
In test [5] the test system is CEM-SS. Description: Intracellular phosphorylation (100 uM) in uninfected CEM-SS cells was studied after 24 hrs of Incubation time. The settings on record: Homo sapiens.
Test [6] concerns CEM-SS. Description: Intracellular phosphorylation (100 uM) in uninfected CEM-SS cells was studied after 24 hrs of Incubation time; Value ranges from 3-5. The conditions noted are these: Homo sapiens.

Regarding `CN1N=C(N)c2cn([C@@H]3O[C@H](CO)C[C@H]3O)c3ncnc1c23`, the IC50 in test [1] was 6 µM; with L1210, 2.2 µM; with HFF [2] it was over 100 µM; in the test on HFF [3], over 100 µM; with CEM-SS [4], 100 µM; in the test with KB, 16 µM. The Concentration in the test on CEM-SS [5] came out at 276 µM.

For `CN1N=C(N)c2cn([C@H]3C=C[C@@H](CO)O3)c3ncnc1c23`, the IC50 (in test [1]; with L1210; with HFF [2]; in the test on HFF [3]; in the test with CEM-SS [4]; in the test on KB) was over 100 µM throughout. For the same compound, in the test with CEM-SS [6], the Concentration was under 5 µM.

As to `CN1N=C(N)c2cn(C3C[C@@H](O)[C@@H](CO)O3)c3ncnc1c23` (some centres not stated), the half-inhibitory concentration (IC50) (in test [1]; with L1210; in the test with HFF [2]; in the test with HFF [3]; with CEM-SS [4]; with KB) was over 100 µM each time. In addition, the Concentration in the test on CEM-SS [6] is under 5 µM.

`CN1N=C(N)c2cn([C@@H]3O[C@H](COP(=O)(O)O)[C@@H](O)[C@H]3O)c3ncnc1c23` [TRICIRIBINE PHOSPHATE]: the IC50 in test [1] is 20 µM; with L1210, 0.025 µM; in the test on HFF [2], 19 µM; in the test on HFF [3], 0.8 µM; in the test on CEM-SS [4], over 1 µM; with KB it was 10 µM.

In the case of `CN1N=C(N)c2cn([C@H]3CC[C@@H](CO)O3)c3ncnc1c23`, the IC50 is over 100 µM in test [1]; 25 µM in the test with L1210; over 100 µM with HFF [2]; over 100 µM in the test with HFF [3]; over 100 µM in the test with CEM-SS [4]; over 100 µM with KB. For the same compound, the Concentration with CEM-SS [5] was determined as 45 µM.

Consider `C[C@H]1OC(n2cc3c4c(ncnc42)N(C)N=C3N)[C@H](O)[C@@H]1O` (some centres not stated), for which the IC50 (in test [1]; in the test with L1210; in the test on HFF [2]; in the test with HFF [3]; in the test with CEM-SS [4]; in the test with KB) was over 100 µM throughout. In the test with CEM-SS [6], this compound registered a Concentration of under 5 µM.

For the compound `CN1N=C(N)c2cn(C3O[C@H](CO)[C@H]4O[C@H]34)c3ncnc1c23` (some centres not stated), the IC50 was 65 µM in test [1]; over 100 µM with HFF [2]; over 100 µM in the test with HFF [3]; over 100 µM in the test with CEM-SS [4]; over 100 µM with KB. In the test on CEM-SS [5], this compound gave a Concentration of under 5 µM.

A word on the IC50: it is the concentration that inhibits the measured activity by half.
